The source of these data is publication PMC6379368, “Extracellular and intracellular small-molecule galectin-3 inhibitors” (Scientific Reports, 2019).

Data set [1] relates to JIMT-1 cells. Briefly: MTT cell viability assay, JIMT-1. It counts as cell-based. As to conditions: JIMT-1, 72 hours, 0.04–40 µM for 1 and 2, 0.04–20 µM for 3. As to the method:
The MTT (3-[4,5-dimethylthiazol-2-yl]−2,5-diphenyltetrazolium bromide) assays were performed as previously described. […] The cells were incubated for 24 hours before addition of galectin-3 inhibitors. The inhibitors were diluted in PBS from their respective stock solution in DMSO (see Galectin-3 inhibitors) and used at final concentrations ranging from 0.04 to 40 μM. DMSO was adjusted to make the final DMSO concentration 0.2% for all inhibitor concentrations, including the control sample (no inhibitor). After 72 hours of treatment, 20 μl of 5 mg/ml MTT solution (in PBS) was added to each well and incubation continued for 1 hour at 37 °C. Thereafter, the MTT containing medium was removed and 100 μl of DMSO was added per well and the plates swirled gently for 10 minutes to dissolve the cells and the purple formazan product precipitate. Absorbance was monitored at 540 nm using a Labsystems iEMS Reader MF (Labsystems Oy, Helsinki, Finland) and the software DeltaSoft II v.4.14 (Biometallics Inc., Princeton, NJ, USA).

In data set [2] the test system is AsPC-1 cells. The experiment in a line: MTT assay, AsPC-1 pancreatic cancer cells. The class given is cell-based. As to conditions: AsPC-1, 72 hours. The protocol: The MTT (3-[4,5-dimethylthiazol-2-yl]−2,5-diphenyltetrazolium bromide) assays were performed as previously described. In brief, cells were seeded in 96-well plates (6000 cells/well for MCF-7 and HCC1937 and 5000 cells for JIMT-1 in 180 μl fully-supplemented medium as described under Cell culture). The cells were incubated for 24 hours before addition of galectin-3 inhibitors. The inhibitors were diluted in PBS from their respective stock solution in DMSO (see Galectin-3 inhibitors) and used at final concentrations ranging from 0.04 to 40 μM. DMSO was adjusted to make the final DMSO concentration 0.2% for all inhibitor concentrations, including the control sample (no inhibitor). After 72 hours of treatment, 20 μl of 5 mg/ml MTT solution (in PBS) was added to each well and incubation continued for 1 hour at 37 °C. […] Absorbance was monitored at 540 nm using a Labsystems iEMS Reader MF (Labsystems Oy, Helsinki, Finland) and the software DeltaSoft II v.4.14 (Biometallics Inc., Princeton, NJ, USA). […]
(§1) Fluorescence anisotropy assay
The affinity between inhibitor 1 and the carbohydrate recognition domain (CRD) of galectin-8C and between inhibitor 3 and the CRD of galectin-2, -4N, -4C, 8C, and -9C was determined using the fluorescence anisotropy assay described in the main article. […]
On the technique in general: Tetrazolium assays rely on reduction of a dye to a coloured formazan, in cell work by metabolically active cells.

In data set [3] the test system is AsPC-1 cells. The experiment in a line: Growth curves, AsPC-1. The class given is cell-based. As to conditions: AsPC-1, 10 µM. The protocol: (§2) METHODS (not described in main article)
(§3) The AsPC-1, BxPc-3, MIA PaCa-2, and PanC-1 pancreatic cancer cell lines were purchased from the American Type Culture Collection (ATCC) (Manassas, VA, USA). AsPC-1 and BxPc-3 cell lines were cultured in RPMI-1640 medium, and MIA PaCa-2 and PanC-1 in Dulbecco's Modified Eagle Medium (DMEM)/Ham's F12 medium mixture (1:1). The medium of all four pancreatic cancer cell lines was supplemented with 10 % fetal bovine serum (FBS), 100 U/ml penicillin, and 100 μg/ml streptomycin. The L56Br-C1 breast cancer cell line was established at Lund University (Lund, Sweden)1, and was cultured in RPMI-1640 medium supplemented with 10 % heat-inactivated FBS, 100 U/ml penicillin, 100 μg/ml streptomycin, 1 mM non-essential amino acids, and 10 µg/ml insulin. The MCF-10A normal-like breast cell line was obtained from ATCC and was cultured in the same medium mixture as L56Br-C1 with the addition of 20 ng/ml epidermal growth factor, 50 ng/ml cholera toxin, and 500 ng/ml hydrocortisone.
as §1
(§4) The affinity between inhibitor 1 and the carbohydrate recognition domain (CRD) of galectin-8C and between inhibitor 3 and the CRD of galectin-2, -4N, -4C, 8C, and -9C was determined using the fluorescence anisotropy assay described in the main article. Experimental conditions used for each galectin […]

The test system of data set [4] is PanC-1 cells. Briefly: Growth curves, PanC-1. The class given is cell-based. As to conditions: PanC-1, 10 µM. As to the method:
as §2, §3, §1, §4

Data set [5] concerns galectin-1. Set-up: method as in Delaine et al., Salameh et al., Peterson et al. As to conditions: lower compared to galectin-3; ref Delaine et al., Salameh et al., Peterson et al.; cited from earlier work.
The subject of data set [6] is animal models of idiopathic pulmonary fibrosis (IPF). Set-up: method as in PMID 27356186, PMID 28055102. As to conditions: cited from earlier work.

With `OC[C@H]1O[C@@H](S[C@@H]2O[C@H](CO)[C@H](O)[C@H](n3cc(-c4cccc(F)c4)nn3)[C@H]2O)[C@H](O)[C@@H](n2cc(-c3cccc(F)c3)nn2)[C@H]1O` [compound 1], the “cell viability (MTT)” value in data set [1] is “no apparent change in cell viability”. Moreover, the “toxicity (MTT)” value in data set [2] is reported as “low toxicity”. The “cell proliferation (growth curves)” value in data set [3] and in data set [4] was “no effect” throughout. Besides, in data set [5], the “affinity for galectin-1” value was “high affinity”. Besides, the “effect in animal models of idiopathic pulmonary fibrosis (IPF)” value in data set [6] is on record as “therapeutic effects”.
